Measurements: the supplement of paper PMC10307832

Assays:
Test in all cases: relative viability (nuclei count vs DMSO), 5 days (fraction); higher = more cells survive
BI-D1870 + Tozasertib = compound: CC(C)CCN1c2nc(Nc3cc(F)c(O)c(F)c3)ncc2N(C)C(=O)C1C [BI-D1870] + Cc1cc(Nc2cc(N3CCN(C)CC3)nc(Sc3ccc(NC(=O)C4CC4)cc3)n2)n[nH]1 [Tozasertib] (partner 0.1 µM)
Summary of the method: (§1)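 A single step with final 0.05% Triton X-100, 1% formaldehyde and 1 ug/ml Hoechst fixed the cells and stained nuclei 5 days after treatment. Lung cancer cell lines in 1536-well plates had been treated by pin tool the day after seeding with one drug alone or a fixed anchor-drug dose plus five library-drug doses (not always all listed) in √10 steps, and nuclei were counted on 4× images. Relative viability is the ratio of nuclei in treated wells to nuclei in vehicle wells, taken as the median of duplicate plates.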

BI-D1870 + Phenformin = compound: CC(C)CCN1c2nc(Nc3cc(F)c(O)c(F)c3)ncc2N(C)C(=O)C1C [BI-D1870] + N=C(N)NC(=N)NCCc1ccccc1 [Phenformin] (partner 250 µM)
Summary of the method: as §1

Zebularine + Bortezomib = compound: O=c1ncccn1[C@@H]1O[C@H](CO)[C@@H](O)[C@H]1O [Zebularine] + CC(C)C[C@H](NC(=O)[C@H](Cc1ccccc1)NC(=O)c1cnccn1)B(O)O [Bortezomib] (partner 0.002 µM)
Summary of the method: as §1

Zebularine + Lapatinib = compound: O=c1ncccn1[C@@H]1O[C@H](CO)[C@@H](O)[C@H]1O [Zebularine] + CS(=O)(=O)CCNCc1ccc(-c2ccc3ncnc(Nc4ccc(OCc5cccc(F)c5)c(Cl)c4)c3c2)o1 [Lapatinib] (partner 2 µM)
Summary of the method: as §1

Cell Line | relative viability (BI-D1870 + Tozasertib; first compound 0.04 µM) | relative viability (BI-D1870 + Tozasertib; first compound 0.1265 µM) | relative viability (BI-D1870 + Tozasertib; first compound 0.4 µM) | relative viability (BI-D1870 + Tozasertib; first compound 1.265 µM) | relative viability (BI-D1870 + Tozasertib; first compound 4 µM) | relative viability (BI-D1870 + Phenformin; first compound 0.04 µM) | relative viability (BI-D1870 + Phenformin; first compound 0.1265 µM) | relative viability (BI-D1870 + Phenformin; first compound 0.4 µM) | relative viability (BI-D1870 + Phenformin; first compound 1.265 µM) | relative viability (BI-D1870 + Phenformin; first compound 4 µM) | relative viability (Zebularine + Bortezomib; first compound 1 µM) | relative viability (Zebularine + Bortezomib; first compound 3.162 µM) | relative viability (Zebularine + Bortezomib; first compound 10 µM) | relative viability (Zebularine + Bortezomib; first compound 31.62 µM) | relative viability (Zebularine + Bortezomib; first compound 100 µM) | relative viability (Zebularine + Lapatinib; first compound 1 µM) | relative viability (Zebularine + Lapatinib; first compound 3.162 µM) | relative viability (Zebularine + Lapatinib; first compound 10 µM) | relative viability (Zebularine + Lapatinib; first compound 31.62 µM) | relative viability (Zebularine + Lapatinib; first compound 100 µM)
NCI-H2085 | 0.816 | 0.735 | 0.544 | 0.547 | 0.401 | 0.806 | 0.658 | 0.676 | 0.69 | 0.52 | 1.12 | 0.971 | 0.828 | 1.06 | 0.683 | 0.833 | 0.747 | 0.647 | 0.773 | 0.633
NCI-H2087 | 0.217 | 0.212 | 0.203 | 0.215 | 0.142 | 0.512 | 0.532 | 0.486 | 0.536 | 0.459 | 0.977 | 0.747 | 0.512 | 0.662 | 0.321 | 1.16 | 0.662 | 0.615 | 0.924 | 0.275
NCI-H2126 | 0.899 | 0.794 | 0.78 | 0.722 | 0.538 | 0.525 | 0.493 | 0.508 | 0.53 | 0.511 | 1.19 | 1.02 | 0.953 | 1.11 | 0.809 | 0.843 | 0.774 | 0.695 | 0.76 | 0.619
NCI-H2228 | 0.226 | 0.205 | 0.163 | 0.164 | 0.134 | 0.4 | 0.417 | 0.317 | 0.348 | 0.288 | 1.17 | 0.924 | 0.46 | 0.837 | 0.354 | 1.19 | 1.04 | 0.66 | 0.638 | 0.281
NCI-H2347 | 0.635 | 0.501 | 0.595 | 0.516 | 0.335 | 0.67 | 0.377 | 0.405 | 0.443 | 0.406 | 0.768 | 0.925 | 0.594 | 0.582 | 0.542 | 1.07 | 0.783 | 0.816 | 0.628 | 0.45
NCI-H2405 | 0.837 | 0.697 | 0.728 | 0.846 | 0.421 | 0.436 | 0.415 | 0.386 | 0.438 | 0.398 | 1.03 | 0.801 | 0.778 | 0.969 | 0.565 | 1.06 | 0.946 | 0.906 | 0.963 | 0.76
NCI-H3122 | 0.456 | 0.471 | 0.401 | 0.415 | 0.204 | 0.362 | 0.354 | 0.383 | 0.39 | 0.346 | 1.04 | 0.991 | 1 | 1.05 | 1.08 | 1.12 | 1.05 | 0.911 | 1.04 | 1.05
PC-3 [JPC-3] | 0.913 | 0.911 | 0.866 | 0.902 | 0.8 | 0.514 | 0.485 | 0.482 | 0.498 | 0.484 | 0.912 | 0.772 | 0.464 | 0.729 | 0.591 | 0.479 | 0.471 | 0.412 | 0.482 | 0.411
PC-14 | 0.62 | 0.561 | 0.55 | 0.659 | 0.367 | 0.669 | 0.521 | 0.587 | 0.627 | 0.447 | 1.05 | 0.743 | 0.147 | 0.115 | 0.0976 | 0.448 | 0.296 | 0.201 | 0.163 | 0.126
RERF-LC-KJ | 0.467 | 0.398 | 0.418 | 0.338 | 0.239 | 0.422 | 0.396 | 0.407 | 0.435 | 0.285 | 1.11 | 0.996 | 0.92 | 1.36 | 1.25 | 0.901 | 0.946 | – | 0.92 | 0.863
SK-LU-1 | 0.365 | 0.276 | 0.262 | 0.339 | 0.204 | 0.505 | 0.525 | 0.514 | 0.63 | 0.358 | 1.3 | 0.913 | 0.576 | 0.737 | 0.502 | 0.896 | 0.9 | 0.545 | 0.676 | 0.448
SW 1573 | 0.175 | 0.16 | 0.159 | 0.176 | 0.175 | 0.487 | 0.212 | 0.308 | 0.394 | 0.144 | 1.13 | 0.896 | 0.78 | 1.07 | 0.584 | 1.24 | 0.773 | 0.502 | 1.23 | 0.873
